# Assays:
# MC-4 receptor = molecular target: T1, MC-4 receptor (Homo sapiens, UniProt P32245); assay: BioTrak cAMP direct enzymeimmunoassay in HEK cells stably transfected with MC-1, MC-3 or MC-4 receptors (% cAMP relative to NDP-MSH); assay type: cell-based; settings: % of maximal cAMP produced by NDP-MSH; concentrations 1×10^−8 to 1×10^−4 molar; HEK cells transfected with MC-1, MC-3 or MC-4
# T1 construct: expressed in transfected cells; host or cells: HEK cells (stably transfected)
# Procedure: The NDP-MSH standard was evaluated for the level of c-AMP release at each receptor and the values for the test samples were expressed as a % of the maximal amount produced by NDP-MSH. 1R, 3R, and 4R correspond respectively to the MC-1, MC-3, and MC-4 receptors. The % c-AMP produced by each compound was measured at concentrations from 1×10^−8 to 1×10^−4 molar.
# As used herein, “MC-4 agonist” and “MC-3 agonist” refers to a compound with affinity for the MC-4 receptor or MC-3 receptor, respectively, that results in measurable biological activity in cells, tissues, or organisms which contain the MC-4 or MC-3 receptor. […] One particularly useful assay is the BioTrak TM cAMP direct enzymeimmunoassay (EIA) system from Amersham Pharmacia Biotech, which quantitates the cAMP response of cells to MC ligands. This system allows the simple quantitation of total cellular cAMP measurement in cells exposed to selective ligands. Briefly summarized: HEK cells stably transfected with the MC-1, MC-3 or MC-4 receptors are plated into 96 well microtiter plates and grown overnight. Cells are dosed with the appropriate MC ligand for 1 hour and then lysed. A fraction of the lysed cell extract is transferred to the assay plate. The ELISA assay is performed according to kit instructions. Each plate contains a series of cAMP standards for calculating a standard curve, as well as a full MC agonist as a positive control for each MC receptor. cAMP activity is calculated as a % of the maximum cAMP activity of the full MC agonist control.
# A compound's selectivity is determined from a comparison of its EC50 values at the relevant receptors being referenced. As used herein, use of the term “selective over the other MC receptors” means selective with respect to all of the MC-1, MC-2 and MC-5 receptors. For example, a compound having an EC50 of 8 nM at the MC-4 receptor and an EC50 of ≧80 nM at the MC-1, MC-2 and MC-5 receptors has a selectivity ratio for the MC-4 receptor over the other MC receptors of at least 1:10. Additionally, it will be recognized that selectivity may also refer to one of the MC-1, MC-2 or MC-5 receptors individually. For example, a compound having an EC50 of 8 nM at the MC-4 receptor and an EC50 of 80 nM at the MC-1 receptor has a selectivity ratio for the MC-4 receptor over the MC-1 receptor of 1:10. Such a compound is selective over the MC-1 receptor, regardless of its EC50 value for MC-2 or MC-5. Selectivity is described in more detail below and may be determined by using, for example, the software Prism v 2.0 which is available from GraphPad, Inc.
# [1] = Example A: treatment of an obese human subject to incur weight loss; assay type: in vivo; settings: obese human 130 kg; intravenous injection once each day for 6 months, 15 ml aqueous solution with 5 mg/ml compound
# Procedure: An obese human subject weighing 130 kg is treated by this method to incur weight loss. Specifically, once each day for a period of 6 months, the subject is administered, via intravenous injection, 15 ml of an aqueous solution comprising the following: […]
# T1 sequence (P32245 whole entry): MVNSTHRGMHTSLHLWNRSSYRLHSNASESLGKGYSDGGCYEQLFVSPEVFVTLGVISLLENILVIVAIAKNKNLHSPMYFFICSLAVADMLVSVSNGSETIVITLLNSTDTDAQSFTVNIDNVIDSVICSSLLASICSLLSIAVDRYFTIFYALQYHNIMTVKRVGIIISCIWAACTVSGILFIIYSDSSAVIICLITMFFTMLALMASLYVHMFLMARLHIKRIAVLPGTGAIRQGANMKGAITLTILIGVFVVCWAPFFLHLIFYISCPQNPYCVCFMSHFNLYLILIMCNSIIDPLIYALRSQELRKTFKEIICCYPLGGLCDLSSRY
Substance,"selectivity shown by % cAMP activity at various concentrations at MC-1R, MC-3R and MC-4R (MC-4 receptor)",weight loss at the end of the treatment period [1]
Ac-a[EYfRWGK]-NH2 [Example 5],selectivity of this analog for MC-4R over the MC-3R and MC-1R,
Ac-a[EYfRWG(Orn)]-NH2 [Example 4],selectivity of this analog for MC-4R over the MC-3R and MC-1R,
Ac-a[DYfRWG(Orn)]-NH2 [Example 31],selectivity of this analog for MC-4R over MC-1R,
Ac-aDYfRWG(Orn)-NH2 [Example 17],selectivity of this analog for MC-4R over MC-1R,
Ac-a[DYfRWGK]-NH2 [Example 1],,measurable weight loss
Ac-NIeDHfRWGK-NH2 [reference compound],non-selective agonist,
Ac-SYSNIeEHfRWGKPV-NH2 [reference compound],non-selective agonist,
Ac-[DYfRWGK]-NH2 [Example 2],selectivity of this analog for MC-4R over the MC-3R and MC-1R,
Ac-aDYfRWGK-NH2 [Example 16],selectivity of this analog for MC-4R over the MC-3R and MC-1R,
Ac-aEYfRWG(Orn)-NH2,selectivity of this analog for MC-4R over MC-1R,
Ac-aDYfRWK-NH2 [Example 14],selectivity of this analog for MC-4R over MC-1R,

# Reference: patent publication US6951916B2, “Melanocortin receptor ligands” (The Procter & Gamble Company, priority 1999, dated 2005)
